From patent US10556936B2, “Immunogenic proteins and fragments thereof from allergenic mites” (ALK-ABELLÓ A/S, priority 2016, dated 2020)

System: HDM-specific T cells expanded from PBMCs of HDM-allergic individuals
Test: T cell reactivity of peptides: IFN/IL-5 ELISPOT on in vitro expanded HDM-specific T cells
Type: cell-based, human
Conditions: for SFC/donor: individual peptides 10 μg/mL; for % responder: percentage of donors that produced a response against the peptide, 10 μg/mL
Experimental: Each sequence of an “L” cluster was aligned separately using the MEGA software tool with ClustalW. Fifteen-mer peptides overlapping by 10 amino acids were generated and the last 15-mer peptide was added when the sequence length was not divisible by 5, 14,783 unique peptides remained.
HLA class II binding predictions optimized for global coverage were performed for the seven class II alleles (HLA-DRB1*03:01, HLA-DRB1*07:01, HLA-DRB1*15:01, HLA-DRB3*01:01, HLA-DRB3*02:02, HLA-DRB4*01:01 and HLA-DRB5*01:01) using the standalone version of the IEDB class II binding prediction tool. The median consensus percentile rank was estimated from the consensus percentile ranks for the seven alleles. Further, peptides with more than ten overlapping amino acids, which appeared because several occurrences of some sequence regions were repeated multiple times in the same sequence, were eliminated (e.g. “[…]” was repeated seven times in one sequence.) Variant peptides were also removed, retaining the better peptide based on the median consensus percentile rank and conservation among the sequences within its respective cluster. Peptides with median consensus percentile rank ≤10.0 and conserved in ≥35% of sequences in the same cluster were finally selected, also including additional selected peptides chosen to maximize DRB1 allele coverage, for a grand total of 2,589 peptides.
Peptides were purchased from Mimotopes (Clayton, Victoria, Australia) or A and A (San Diego, Calif.) as crude material on a small (1-mg) scale. Individual peptides were resuspended in DMSO at a final concentration of 40 mg/mL. Peptide “megapools” of 30-65 peptides/pool were generated. Following lyophilization, each pool was reconstituted in DMSO so that each peptide was present at a concentration of 4 mg/mL. To facilitate deconvolution of positive megapools, each megapool was further broken down in 2-6 “mesopools” (259 mesopools in total), each containing 8-14 peptides. Each mesopool was then deconvoluted to identify individual positive peptides. To avoid dimerization and polymerization of peptides by intra- and intermolecular disulfide bond formation between cysteine residues, this amino acid were in some instances substituted by a serine residue in the peptides. Such peptides are herein marked with an asterisk (*).
PBMCs from European HDM-allergic individuals were recruited in the Copenhagen region (defined by clinical history of allergy to house dust mite and specific IgE to group 1 and group 2 major allergens from Der p and/or Der f and with measured specific IgE (CAP) >0.7 kU/L towards Der p/f 1 or Der p/f 2. In addition, PBMCs from 10 US HDM-allergic individuals were recruited in San Diego (defined by Der p extract IgE titers greater than 0.35 kUA/L). PBMCs were isolated from whole blood by density gradient centrifugation according to manufacturers' instructions (Ficoll-Hypaque, Amersham Biosciences, Uppsala, Sweden). Der p- and Der f-specific extract IgE titers were determined using the ImmunoCAP system (Thermo Fisher, Uppsala, Sweden). In a separate series of experiments, pooled plasma from 10 European and 10 American HDM atopic individuals from the San Diego region, respectively, was utilized to run 2D immunoblots to elucidate IgE and IgG reactivity towards the proteins, which had at least one peptide with positive T cell response.
HDM-specific T cells were expanded in vitro. Briefly, PBMCs from HDM-allergic individuals were stimulated with HDM extract (5 μg/mL) and expanded over 14-17 days with IL-2 (added every 3 days). Cells were harvested on day 14, restimulated with HDM extract (5 μg/mL), individual peptides (10 μg/mL) or peptide pools (5 μg/mL) and screened for […]/IL-5-production by ELISPOT. Criteria for positivity were 100 or 20 spot forming cells (SFCs) per 10^6 PBMCs for peptide pools or single peptides, respectively, p<0.05, and a stimulation index >2.

150 (ELNSRFVYAKLRGAF; Immunogenic fragment) [compound 150]
SFC/donor: 21 SFC/donor
% responder: 5%

139 (ELNFKVYEDAAALAK; Immunogenic fragment) [compound 139]
SFC/donor: 16 SFC/donor
% responder: 10%

47 (ELLKKKGIIPGIKVD; Immunogenic fragment) [compound 47]
SFC/donor: 12 SFC/donor
% responder: 5%

113 (LCIRWYQLGAFYSFA; Immunogenic fragment) [compound 113]
SFC/donor: 40 SFC/donor
% responder: 15%

51 (RGIVGEIIRRFEAKG; Immunogenic fragment) [compound 51]
SFC/donor: 5 SFC/donor
% responder: 5%

104 (LHNLYSLSMAMATNA; Immunogenic fragment) [compound 104]
SFC/donor: 29 SFC/donor
% responder: 10%

53 (FEAKGFKLVAMKFMM; Immunogenic fragment) [compound 53]
SFC/donor: 7 SFC/donor
% responder: 5%

92 (GPKPEQVVQQYHNLI; Immunogenic fragment) [compound 92]
SFC/donor: 1 SFC/donor
% responder: 5%

79 (GNDLKNLSSKVLPNL; Immunogenic fragment) [compound 79]
SFC/donor: 5 SFC/donor
% responder: 5%

102 (QLHYNLHNLYGFQEA; Immunogenic fragment) [compound 102]
SFC/donor: 14 SFC/donor
% responder: 10%

116 (LGESVIRAARSSLQY; Immunogenic fragment) [compound 116]
SFC/donor: 30 SFC/donor
% responder: 15%

100 (TLRHKTLCMTARHYN; Immunogenic fragment) [compound 100]
SFC/donor: 12 SFC/donor
% responder: 10%

93 (QVVQQYHNLIGLPAM; Immunogenic fragment) [compound 93]
SFC/donor: 11 SFC/donor
% responder: 10%

YITFTEPFMINQLAA (Immunogenic fragment) [Peptide 180, fragment of A0023 Der f/p]
SFC/donor: 29 SFC/donor
% responder: 10%

52 (EIIRRFEAKGFKLVA; Immunogenic fragment) [compound 52]
SFC/donor: 40 SFC/donor
% responder: 5%

90 (TKLASGVFLFNSNAM; Immunogenic fragment) [compound 90]
SFC/donor: 11 SFC/donor
% responder: 5%

94 (FTNLNTTYTRNRAVG; Immunogenic fragment) [compound 94]
SFC/donor: 94 SFC/donor
% responder: 15%

136 (DKSKKIHYQFEWKFN; Immunogenic fragment) [compound 136]
SFC/donor: 2 SFC/donor
% responder: 5%

75 (SLRHLFKSFEIIAVE; Immunogenic fragment) [compound 75]
SFC/donor: 6 SFC/donor
% responder: 5%

132 (GKPYYQFIYTTNNML; Immunogenic fragment) [compound 132]
SFC/donor: 44 SFC/donor
% responder: 15%

119 (RYRFLAHLYTLFYHV; Immunogenic fragment) [compound 119]
SFC/donor: 158 SFC/donor
% responder: 10%

66 (IVQEVHQQFDSFVGQ; Immunogenic fragment) [compound 66]
SFC/donor: 6 SFC/donor
% responder: 5%

64 (LYNPLGHRLINHTVR; Immunogenic fragment) [compound 64]
SFC/donor: 6 SFC/donor
% responder: 5%

EPFMINQLAALIRRE (Immunogenic fragment) [Peptide 181, fragment of A0023 Der f/p]
SFC/donor: 40 SFC/donor
% responder: 10%

87 (QSIFDINLAYMVYSD; Immunogenic fragment) [compound 87]
SFC/donor: 69 SFC/donor
% responder: 20%

118 (SSLQYRYRFLAHLYT; Immunogenic fragment) [compound 118]
SFC/donor: 37 SFC/donor
% responder: 20%

148 (TWWFDEAPMLSSSQY; Immunogenic fragment) [compound 148]
SFC/donor: 21 SFC/donor
% responder: 10%

131 (PRIIRFNYDEQTNIL; Immunogenic fragment) [compound 131]
SFC/donor: 160 SFC/donor
% responder: 25%

68 (DGHGIVIRGRHLLLL; Immunogenic fragment) [compound 68]
SFC/donor: 24 SFC/donor
% responder: 5%

143 (FNTAVLFDRQGKLLG; Immunogenic fragment) [compound 143]
SFC/donor: 11 SFC/donor
% responder: 10%

128 (YQTNQSIIILEILGI; Immunogenic fragment) [compound 128]
SFC/donor: 10 SFC/donor
% responder: 10%

105 (SLSMAMATNAALTKL; Immunogenic fragment) [compound 105]
SFC/donor: 9 SFC/donor
% responder: 5%

73 (TLEQWHSKRYLLRLE; Immunogenic fragment) [compound 73]
SFC/donor: 4 SFC/donor
% responder: 5%

88 (MVYSDQLIHVTSRLP; Immunogenic fragment) [compound 88]
SFC/donor: 3 SFC/donor
% responder: 5%

67 (LMVHRRLLHDDYFGV; Immunogenic fragment) [compound 67]
SFC/donor: 2 SFC/donor
% responder: 5%

60 (HVAFNYAKMLDSAML; Immunogenic fragment) [compound 60]
SFC/donor: 75 SFC/donor
% responder: 5%

65 (LISIPEFVRKIPGRK; Immunogenic fragment) [compound 65]
SFC/donor: 6 SFC/donor
% responder: 5%

50 (FIMLKPDAVQRGIVG; Immunogenic fragment) [compound 50]
SFC/donor: 7 SFC/donor
% responder: 5%

61 (AMLQCRHVISESYRK; Immunogenic fragment) [compound 61]
SFC/donor: 5 SFC/donor
% responder: 5%

115 (AFYSFVRNHNTDNAI; Immunogenic fragment) [compound 115]
SFC/donor: 15 SFC/donor
% responder: 20%

141 (KHEIFVVADLIDRKS; Immunogenic fragment) [compound 141]
SFC/donor: 7 SFC/donor
% responder: 5%

57 (WEGLNAVKTGRVMLG; Immunogenic fragment) [compound 57]
SFC/donor: 5 SFC/donor
% responder: 5%

125 (FFRSGSIIPIQGPQN; Immunogenic fragment) [compound 125]
SFC/donor: 5 SFC/donor
% responder: 5%

82 (YIGYKIEKHSKNLIQ; Immunogenic fragment) [compound 82]
SFC/donor: 4 SFC/donor
% responder: 5%

140 (EDGLIYNIASREKAD; Immunogenic fragment) [compound 140]
SFC/donor: 55 SFC/donor
% responder: 5%

98 (WMDMFAEYHKTIAFD; Immunogenic fragment) [compound 98]
SFC/donor: 8 SFC/donor
% responder: 5%

89 (RAPFRKNTNWKRYTQ; Immunogenic fragment) [compound 89]
SFC/donor: 9 SFC/donor
% responder: 5%

91 (GVFLFNSNAMDILTQ; Immunogenic fragment) [compound 91]
SFC/donor: 9 SFC/donor
% responder: 5%

144 (RYHKMHLFGEMTMNI; Immunogenic fragment) [compound 144]
SFC/donor: 10 SFC/donor
% responder: 10%

117 (IRAARSSLQYRYRFL; Immunogenic fragment) [compound 117]
SFC/donor: 20 SFC/donor
% responder: 20%
